According to patent US20250213735A1, “NEUROPEPTIDE Y1 RECEPTOR (NPY1R) TARGETED THERAPEUTICS AND USES THEREOF” (Radionetics Oncology, Inc., priority 2023, published 2025):
Numbered stars: 1 amine (or outer) side, 2 acyl side, 3 side chain; on linkers, the order of the positions; unused ones are H or OH. Square brackets hold non-standard residues; d marks the D form. Peptide text beside a SMILES is read from it. * marks the point of attachment. dArg(Nω-CONH(CH2)2NHCOEt) = CCC(=O)NCCNC(=O)/N=C(/N)NCCC[C@@H](N)C(=O)O; DOTA = O=C(O)CN1CCN(CC(=O)O)CCN(CC(=O)*)CCN(CC(=O)O)CC1; X1 = O=C([C@H](c1ccc(OCCCN[*:1])cc1)N1Cc2ccccc2C1)[*:2]; NH(2,6-F2-4-OH-benzyl) = Oc1cc(F)c(CN*)c(F)c1; βAla = NCCC(=O)O

molecular target: hNPY1R (Homo sapiens (Human), UniProt P25929); assay: NPY1R binding assay (SK-N-MC membrane, [125I]-Peptide YY competition); conditions: crude SK-N-MC membranes endogenously expressing NPY1R; [125I]-Peptide YY (human) 0.05 nM; 120 min at room temperature; read-out: hNPY1R binding Ki;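 further: bound radioligand separated by filtration over GF/C filter plates and counted, Ki obtained by non-linear regression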
Sequence (P25929 whole entry): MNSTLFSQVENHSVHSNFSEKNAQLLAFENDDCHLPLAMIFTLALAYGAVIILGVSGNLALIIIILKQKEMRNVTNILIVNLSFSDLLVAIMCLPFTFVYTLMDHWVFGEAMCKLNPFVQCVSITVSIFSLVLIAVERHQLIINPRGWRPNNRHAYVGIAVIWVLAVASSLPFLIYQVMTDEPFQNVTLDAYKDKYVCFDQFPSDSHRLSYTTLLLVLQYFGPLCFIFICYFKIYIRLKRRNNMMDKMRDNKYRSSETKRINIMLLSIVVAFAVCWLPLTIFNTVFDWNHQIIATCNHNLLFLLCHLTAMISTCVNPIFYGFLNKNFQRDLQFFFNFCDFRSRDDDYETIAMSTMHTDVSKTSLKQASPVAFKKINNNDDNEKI
Method: Crude membrane fractions are prepared from SK-N-MC cells endogenously expressing the NPY1R receptor. The cells are grown to 85-100% confluence on standard tissue culture dishes in Eagle's Minimum Essential Medium supplemented with 10% dialyzed FBS. To prepare membranes, cells are scraped and collected in 1× Dulbecco's phosphate buffered saline and then pelleted at 1000 RPM's. The cell pellet is reconstituted in membrane preparation buffer (20 mM HEPES, 6 mM MgCl2 and 1 mM EGTA, protease inhibitor tablets, pH 7.4) and placed in a cell disruption vessel at 1000 PSI for 30 minutes on ice. The pressurized contents are then released and spun down at 1000 RPMs and the supernatant is collected and further centrifuged at 15,000 RPMs to pellet the membranes. The membrane pellet is resuspended in membrane preparation buffer, snap frozen and stored at −80° C. for later use.
Assay contents are then filtered through unifilter GF/C microplates and washed with 9×400 μl of cold wash buffer (25 mM HEPES, 5 mM MgCl2, 1 mM CaCl2), 500 mM NaCl, 0.1% Tween-20, pH 7.4). Assay plates are read using a Top Count NXT and Ki values for compounds are determined using a GraphPad Prism 6 non-linear regression analysis.

SMILES	Ki [nM]
CCC(=O)NCCNC(=O)/N=C(/N)NCCC[C@@H](NC(=O)[C@H](c1ccc(OCCCNC(=O)CN2CCN(CC(=O)O)CCN(CC(=O)O)CCN(CC(=O)O)CC2)cc1)N1Cc2ccccc2C1)C(=O)NCc1ccc(O)cc1 [compound 59, 2,2′,2″-(10-(2-((3-(4-((1S,4R,Z)-9-amino-4-((4-hydroxybenzyl)carbamoyl)-1-(isoindolin-2-yl)-2,11,16-trioxo-3,8,10,12,15-pentaazaoctadec-9-en-1-yl)phenoxy)propyl)amino)-2-oxoethyl)-1,4,7,10-tetraazacyclododecane-1,4,7-triyl)triacetic acid]	< 10
CCNC(=O)/N=C(/N)NCCC[C@@H](NC(=O)[C@H](c1cccc(NCCCNC(=O)CCOCCNC(=O)CN2CCN(CC(=O)O)CCN(CC(=O)O)CCN(CC(=O)O)CC2)c1)N1Cc2ccccc2C1)C(=O)NCc1c(F)cc(O)cc1F [compound 14, 2,2′,2″-(10-(2-((2-(3-((3-((3-((11R,14S,Z)-6-amino-11-((2,6-difluoro-4-hydroxybenzyl)carbamoyl)-14-(isoindolin-2-yl)-4,13-dioxo-3,5,7,12-tetraazatetradec-5-en-14-yl)phenyl)amino)propyl)amino)-3-oxopropoxy)ethyl)amino)-2-oxoethyl)-1,4,7,10-tetraazacyclododecane-1,4,7-triyl)triacetic acid]	< 10
CCC(=O)NCCNC(=O)/N=C(/N)NCCC[C@@H](NC(=O)[C@H](c1ccccc1)N1Cc2cccc(NCCCNC(=O)CCC(=O)NCCNC(=O)CN3CCN(CC(=O)O)CCN(CC(=O)O)CCN(CC(=O)O)CC3)c2C1)C(=O)NCc1c(F)cc(O)cc1F [compound 42, 2,2′,2″-(10-(2-((2-(4-((3-((2-((1S,4R,Z)-9-amino-4-((2,6-difluoro-4-hydroxybenzyl)carbamoyl)-2,11,16-trioxo-1-phenyl-3,8,10,12,15-pentaazaoctadec-9-en-1-yl)isoindolin-4-yl)amino)propyl)amino)-4-oxobutanamido)ethyl)amino)-2-oxoethyl)-1,4,7,10-tetraazacyclododecane-1,4,7-triyl)triacetic acid]	< 10
CCNC(=O)/N=C(/N)NCCC[C@@H](NC(=O)[C@H](c1ccccc1)N1Cc2cccc(NCCCN)c2C1)C(=O)NCc1c(F)cc(O)cc1F [compound 65, (R)-2-((S)-2-(4-((3-aminopropyl)amino)isoindolin-2-yl)-2-phenylacetamido)-N-(2,6-difluoro-4-hydroxybenzyl)-5-((Z)-2-(ethylcarbamoyl)guanidino)pentanamide]	< 10
N=C(N)NCCC[C@@H](NC(=O)C(c1ccccc1)N1CCC2(CC1)CC2)C(=O)NCc1ccc(O)cc1 (stereo partly drawn) [compound 85, (2R)-5-guanidino-N-(4-hydroxybenzyl)-2-(2-phenyl-2-(6-azaspiro[2.5]octan-6-yl)acetamido)pentanamide]	10 to 100
N=C(N)NCCC[C@@H](NC(=O)C(c1ccccc1)N1CCC2(CC1)CC(F)(F)C2)C(=O)NCc1ccc(O)cc1 (stereo partly drawn) [compound 90, (2R)-2-(2-(2,2-difluoro-7-azaspiro[3.5]nonan-7-yl)-2-phenylacetamido)-5-guanidino-N-(4-hydroxybenzyl)pentanamide]	100 to 1000
CCC(=O)NCCNC(=O)/N=C(/N)NCCC[C@@H](NC(=O)[C@@H](c1cccc(NC(=O)CCCNc2c(NCCCCCCNC(=O)CN3CCN(CC(=O)O)CCN(CC(=O)O)CCN(CC(=O)O)CC3)c(=O)c2=O)c1)N1Cc2ccccc2C1)C(=O)NCc1c(F)cc(O)cc1F (single isomer, unassigned) [31B]	< 10
CCC(=O)NCCNC(=O)/N=C(/N)NCCC[C@@H](NC(=O)[C@H](c1ccccc1)N1Cc2cccc(NCCCNC(=O)CCCCCNC(=O)CN3CCN(CC(=O)O)CCN(CC(=O)O)CCN(CC(=O)O)CC3)c2C1)C(=O)NCc1c(F)cc(O)cc1F [compound 33, 2,2′,2″-(10-(2-((6-((3-((2-((1S,4R,Z)-9-amino-4-((2,6-difluoro-4-hydroxybenzyl)carbamoyl)-2,11,16-trioxo-1-phenyl-3,8,10,12,15-pentaazaoctadec-9-en-1-yl)isoindolin-4-yl)amino)propyl)amino)-6-oxohexyl)amino)-2-oxoethyl)-1,4,7,10-tetraazacyclododecane-1,4,7-triyl)triacetic acid]	< 10
CCC(=O)NCCNC(=O)/N=C(/N)NCCC[C@@H](NC(=O)[C@H](c1cccc(NCCCN)c1)N1Cc2ccccc2C1)C(=O)NCc1ccc(O)cc1 [compound 63, (R)-2-((S)-2-(3-((3-aminopropyl)amino)phenyl)-2-(isoindolin-2-yl)acetamido)-N-(4-hydroxybenzyl)-5-((Z)-2-((2-propionamidoethyl)carbamoyl)guanidino)pentanamide]	< 10
CCC(=O)NCCNC(=O)/N=C(/N)NCCC[C@@H](NC(=O)[C@H](c1cccc(NC(=O)CCCNC(=O)CCCCCNC(=O)CN2CCN(CC(=O)O)CCN(CC(=O)O)CCN(CC(=O)O)CC2)c1)N1Cc2ccccc2C1)C(=O)NCc1ccc(O)cc1 [3A, 2,2′,2″-(10-(2-((6-((4-((3-((1S,4R,Z)-9-amino-4-((4-hydroxybenzyl)carbamoyl)-1-(isoindolin-2-yl)-2,11,16-trioxo-3,8,10,12,15-pentaazaoctadec-9-en-1-yl)phenyl)amino)-4-oxobutyl)amino)-6-oxohexyl)amino)-2-oxoethyl)-1,4,7,10-tetraazacyclododecane-1,4,7-triyl)triacetic acid-2,2,2-trifluoroacetic acid (1/1)]	< 10
CCC(=O)NCCNC(=O)/N=C(/N)NCCC[C@@H](NC(=O)[C@H](c1cccc(OCCCNC(=O)CCCCCNC(=O)CN2CCN(CC(=O)O)CCN(CC(=O)O)CCN(CC(=O)O)CC2)c1)N1Cc2ccccc2C1)C(=O)NCc1ccc(O)cc1 [compound 12, 2,2′,2″-(10-(2-((6-((3-(3-((1S,4R,Z)-9-amino-4-((4-hydroxybenzyl)carbamoyl)-1-(isoindolin-2-yl)-2,11,16-trioxo-3,8,10,12,15-pentaazaoctadec-9-en-1-yl)phenoxy)propyl)amino)-6-oxohexyl)amino)-2-oxoethyl)-1,4,7,10-tetraazacyclododecane-1,4,7-triyl)triacetic acid]	< 10
CCC(=O)NCCNC(=O)/N=C(/N)NCCC[C@@H](NC(=O)[C@H](c1ccc(OCCCNC(=O)[C@H]2CC[C@H](CNC(=O)CN3CCN(CC(=O)O)CCN(CC(=O)O)CCN(CC(=O)O)CC3)CC2)cc1)N1Cc2ccccc2C1)C(=O)NCc1ccc(O)cc1 [compound 18, 2,2′,2″-(10-(2-((((1S,4r)-4-((3-(4-((1S,4R,Z)-9-amino-4-((4-hydroxybenzyl)carbamoyl)-1-(isoindolin-2-yl)-2,11,16-trioxo-3,8,10,12,15-pentaazaoctadec-9-en-1-yl)phenoxy)propyl)carbamoyl)cyclohexyl)methyl)amino)-2-oxoethyl)-1,4,7,10-tetraazacyclododecane-1,4,7-triyl)triacetic acid]	< 10
N=C(N)NCCC[C@@H](NC(=O)[C@@H](c1ccccc1)N1Cc2ccccc2C1=O)C(=O)NCc1ccc(O)cc1 [71B, (R)-5-guanidino-N-(4-hydroxybenzyl)-2-((R)-2-(1-oxoisoindolin-2-yl)-2-phenylacetamido)pentanamide]	> 1000
CCC(=O)NCCNC(=O)/N=C(/N)NCCC[C@@H](NC(=O)[C@H](c1ccc(OCCCN2CCN(C3CCN(C(=O)CCCCCNC(=O)CN4CCN(CC(=O)O)CCN(CC(=O)O)CCN(CC(=O)O)CC4)CC3)CC2)cc1)N1Cc2ccccc2C1)C(=O)NCc1c(F)cc(O)cc1F [compound 35, 2,2′,2″-(10-(2-((6-(4-(4-(3-(4-((1S,4R,Z)-9-amino-4-((2,6-difluoro-4-hydroxybenzyl)carbamoyl)-1-(isoindolin-2-yl)-2,11,16-trioxo-3,8,10,12,15-pentaazaoctadec-9-en-1-yl)phenoxy)propyl)piperazin-1-yl)piperidin-1-yl)-6-oxohexyl)amino)-2-oxoethyl)-1,4,7,10-tetraazacyclododecane-1,4,7-triyl)triacetic acid]	< 10
N=C(N)NCCC[C@@H](NC(=O)C(c1ccccc1)N1Cc2ccccc2C1)C(=O)NCc1ccc(O)cc1 (stereo partly drawn) [compound 68, (2R)-5-guanidino-N-(4-hydroxybenzyl)-2-(2-(isoindolin-2-yl)-2-phenylacetamido)pentanamide]	10 to 100
N=C(N)NCCC[C@@H](NC(=O)C(c1ccccc1)N1CCC(C(F)(F)F)CC1)C(=O)NCc1ccc(O)cc1 (stereo partly drawn) [compound 73, (2R)-5-guanidino-N-(4-hydroxybenzyl)-2-(2-phenyl-2-(4-(trifluoromethyl)piperidin-1-yl)acetamido)pentanamide]	100 to 1000
CCC(=O)NCCNC(=O)/N=C(/N)NCCC[C@@H](NC(=O)[C@@H](c1ccccc1)N1Cc2ccccc2C1)C(=O)NCc1c(F)cc(O)cc1F [61B, (R)—N-(2,6-difluoro-4-hydroxybenzyl)-2-((R)-2-(isoindolin-2-yl)-2-phenylacetamido)-5-((Z)-2-((2-propionamidoethyl)carbamoyl)guanidino)pentanamide]	< 10
CCC(=O)NCCNC(=O)/N=C(/N)NCCC[C@@H](NC(=O)[C@H](c1ccc(OCCCNC(=O)[C@@H](CO)NC(=O)[C@@H](CO)NC(=O)[C@@H](CO)NC(=O)CCNC(=O)CN2CCN(CC(=O)O)CCN(CC(=O)O)CCN(CC(=O)O)CC2)cc1)N1Cc2ccccc2C1)C(=O)NCc1c(F)cc(O)cc1F [compound 54, 2,2′,2″-(10-((8R,11R,14R)-19-(4-((1S,4R,Z)-9-amino-4-((2,6-difluoro-4-hydroxybenzyl)carbamoyl)-1-(isoindolin-2-yl)-2,11,16-trioxo-3,8,10,12,15-pentaazaoctadec-9-en-1-yl)phenoxy)-8,11,14-tris(hydroxymethyl)-2,6,9,12,15-pentaoxo-3,7,10,13,16-pentaazanonadecyl)-1,4,7,10-tetraazacyclododecane-1,4,7-triyl)triacetic acid] ({DOTA-βAla}-[dS][dS][dS][X1][dArg(Nω-CONH(CH2)2NHCOEt)]-{NH(2,6-F2-4-OH-benzyl)})	< 10
